Laboratory results reported in publication PMC7456477, “Pharmacokinetic Study of Thirteen Ingredients after the Oral Administration of Flos Chrysanthemi Extract in Rats by UPLC-MS/MS” (BioMed Research International, 2020).

Tests used:
[1] = Stability of analytes in rat plasma (QC samples under four storage conditions); format: in vitro ADME; settings: n = 6
Description: To study the stability of all compounds in rat plasma, low, medium, and high concentrations of QC samples were tested under the following test conditions: stored at an autosampler for 12 hours, stored at room temperature for 6 hours, put through three freeze/thaw cycles, and stored at -80°C for 14 days. Three QC concentrations were tested for each of the above conditions.
The stability of all 13 analytes during sample collection and processing was evaluated with the various storage conditions being tested on spiked plasma samples at three QC concentrations.

[2] = Pharmacokinetic study in rat plasma after oral administration of Flos Chrysanthemi extract (UPLC-MS/MS); format: in vivo, Sprague-Dawley rats; settings: rats, oral Flos Chrysanthemi extract 10 g/kg; for Detection in plasma over the sampling time: result in words; for AUC(0-inf) / Cmax / Tmax / half-life / AUC / k el: male, Sprague-Dawley, rat, plasma, n = 6; for AUC: read-out: AUC(0 − tn); for k el: read-out: Ke (converted)
Description: Six male Sprague-Dawley rats (250 ± 5 g) were purchased from Huafukang Bioscience Co., Inc. (Beijing, China). The rats were adapted to the facility for a week. Before the experiments, rats were fasted for 12 h, although drinking water was readily accessible. Flos Chrysanthemi extract was dissolved in CMC-Na aqueous solution and orally administered to the animals once at 10 g/kg. Blood samples (220 μL) were taken from the orbital venous plexus of rats at 0, 0.03, 0.08, 0.17, 0.25, 0.5, 1, 2, 4, 6, 8, 10, 12, and 24 h after extract administration. Blood samples were promptly centrifuged at 6000 rpm for 10 min, and plasma samples were collected. The obtained plasma was stored at -80°C until analysis. “Drug and Statistics 3.0” software (Medical College of Wannan, China) was used to calculate pharmacokinetic parameters. The animal protocol was approved by the Animal Ethics Committee of Tianjin University of Traditional Chinese Medicine (TCM-LAEC20190056).
Plasma samples from rats orally administered with Flos Chrysanthemi extract (10.0 g/kg) were analysed with UPLC-MS/MS. Plasma concentration-time curves are shown in Figure 3, and the primary pharmacokinetic parameters of each analyte are summarized in Table 6.

[3] = spiked concentration 1000 ng/mL
[4] = spiked concentration 2000 ng/mL
[5] = spiked concentration 4000 ng/mL

Row | Measured concentration, -80°C for 14 days ([1]; spiked concentration 5 ng/mL) [ng/mL] | Measured concentration, Autosampler for 12 h ([1]; spiked concentration 5 ng/mL) [ng/mL] | Measured concentration, Room temperature for 6 h ([1]; spiked concentration 5 ng/mL) [ng/mL] | Measured concentration, Three freeze-thaw cycles ([1]; spiked concentration 5 ng/mL) [ng/mL] | Measured concentration, -80°C for 14 days ([1]; spiked concentration 50 ng/mL) [ng/mL] | Measured concentration, Autosampler for 12 h ([1]; spiked concentration 50 ng/mL) [ng/mL] | Measured concentration, Room temperature for 6 h ([1]; spiked concentration 50 ng/mL) [ng/mL] | Measured concentration, Three freeze-thaw cycles ([1]; spiked concentration 50 ng/mL) [ng/mL] | Measured concentration, -80°C for 14 days [1, 3] [ng/mL] | Measured concentration, Three freeze-thaw cycles [1, 3] [ng/mL] | Measured concentration, Autosampler for 12 h [1, 3] [ng/mL] | Measured concentration, Room temperature for 6 h [1, 3] [ng/mL] | AUC(0-inf) [2] [ng·h/mL] | Cmax [2] [ng/mL] | Tmax [2] [min] | half-life [2] [min] | AUC [2] [ng·h/mL] | k el [2] [s⁻¹] | Compound | Detection in plasma over the sampling time [2] | also measured
1 | 5.2 ± 0.2 | 5.0 ± 0.2 | 5.3 ± 0.1 | 5.9 ± 0.1 | 46.7 ± 1.4 | 44.5 ± 1.3 | 49.1 ± 1.5 | 54.1 ± 0.3 | 1075.7 ± 52.9 | 1122.8 ± 6.8 | 1069.3 ± 16.2 | 1012.9 ± 11.1 | 431 ± 197 | 89.4 ± 45.3 | 36.6 ± 19.8 | 414 ± 204 | 319 ± 97.3 | 3.33e-05 | O=C(/C=C/c1ccc(O)c(O)c1)O[C@H]1[C@H](O)C[C@](O)(C(=O)O)C[C@H]1O [Cryptochlorogenic acid] | – | –
2 | – | – | – | – | – | – | – | – | – | – | – | – | 6730 ± 2280 | 749 ± 195 | 30 ± 16.2 | 370 ± 85.8 | 6450 ± 1810 | 3.33e-05 | O=C(O)[C@H]1O[C@@H](Oc2cc(O)c3c(=O)cc(-c4ccc(O)c(O)c4)oc3c2)[C@H](O)[C@@H](O)[C@@H]1O [Luteolin 7-O-glucuronide] | – | Measured concentration, -80°C for 14 days ([1]; spiked concentration 10 ng/mL): 8.8 ± 0.2 ng/mL; Measured concentration, Autosampler for 12 h ([1]; spiked concentration 10 ng/mL): 9.6 ± 0.3 ng/mL; Measured concentration, Room temperature for 6 h ([1]; spiked concentration 10 ng/mL): 10.9 ± 0.8 ng/mL; Measured concentration, Three freeze-thaw cycles ([1]; spiked concentration 10 ng/mL): 11.1 ± 0.1 ng/mL; Measured concentration, -80°C for 14 days ([1]; spiked concentration 100 ng/mL): 99.7 ± 0.3 ng/mL; Measured concentration, Autosampler for 12 h ([1]; spiked concentration 100 ng/mL): 90.7 ± 0.4 ng/mL; Measured concentration, Room temperature for 6 h ([1]; spiked concentration 100 ng/mL): 110.9 ± 1.2 ng/mL; Measured concentration, Three freeze-thaw cycles ([1]; spiked concentration 100 ng/mL): 112.6 ± 0.5 ng/mL; Measured concentration, -80°C for 14 days [1, 4]: 1930.7 ± 22.5 ng/mL; Measured concentration, Autosampler for 12 h [1, 4]: 1960.1 ± 38.5 ng/mL; Measured concentration, Room temperature for 6 h [1, 4]: 2214.4 ± 17.9 ng/mL; Measured concentration, Three freeze-thaw cycles [1, 4]: 2225.7 ± 9.3 ng/mL
3 | – | – | – | – | – | – | – | – | – | – | – | – | 25100 ± 2230 | 2080 ± 307 | 30 | 533 ± 241 | 24200 ± 2110 | 2.78e-05 | O=c1cc(-c2ccc(O)c(O)c2)oc2cc(O)cc(O)c12 [Luteolin] | – | Measured concentration, -80°C for 14 days ([1]; spiked concentration 20 ng/mL): 17.4 ± 0.3 ng/mL; Measured concentration, Autosampler for 12 h ([1]; spiked concentration 20 ng/mL): 21.3 ± 0.4 ng/mL; Measured concentration, Room temperature for 6 h ([1]; spiked concentration 20 ng/mL): 20.3 ± 0.3 ng/mL; Measured concentration, Three freeze-thaw cycles ([1]; spiked concentration 20 ng/mL): 23.2 ± 0.7 ng/mL; Measured concentration, -80°C for 14 days ([1]; spiked concentration 200 ng/mL): 195.1 ± 2.6 ng/mL; Measured concentration, Autosampler for 12 h ([1]; spiked concentration 200 ng/mL): 181.7 ± 0.8 ng/mL; Measured concentration, Room temperature for 6 h ([1]; spiked concentration 200 ng/mL): 193.5 ± 3.3 ng/mL; Measured concentration, Three freeze-thaw cycles ([1]; spiked concentration 200 ng/mL): 223.7 ± 1.5 ng/mL; Measured concentration, -80°C for 14 days [1, 5]: 4195.2 ± 15.1 ng/mL; Measured concentration, Autosampler for 12 h [1, 5]: 3656.3 ± 33.7 ng/mL; Measured concentration, Room temperature for 6 h [1, 5]: 4419.0 ± 9.2 ng/mL; Measured concentration, Three freeze-thaw cycles [1, 5]: 4475.1 ± 11.8 ng/mL

Continued, compound first:

Row | Compound | Measured concentration, -80°C for 14 days ([1]; spiked concentration 5 ng/mL) [ng/mL] | Measured concentration, Autosampler for 12 h ([1]; spiked concentration 5 ng/mL) [ng/mL] | Measured concentration, Room temperature for 6 h ([1]; spiked concentration 5 ng/mL) [ng/mL] | Measured concentration, Three freeze-thaw cycles ([1]; spiked concentration 5 ng/mL) [ng/mL] | Measured concentration, -80°C for 14 days ([1]; spiked concentration 50 ng/mL) [ng/mL] | Measured concentration, Autosampler for 12 h ([1]; spiked concentration 50 ng/mL) [ng/mL] | Measured concentration, Room temperature for 6 h ([1]; spiked concentration 50 ng/mL) [ng/mL] | Measured concentration, Three freeze-thaw cycles ([1]; spiked concentration 50 ng/mL) [ng/mL] | Measured concentration, -80°C for 14 days [1, 3] [ng/mL] | Measured concentration, Three freeze-thaw cycles [1, 3] [ng/mL] | Measured concentration, Autosampler for 12 h [1, 3] [ng/mL] | Measured concentration, Room temperature for 6 h [1, 3] [ng/mL] | AUC(0-inf) [2] [ng·h/mL] | Cmax [2] [ng/mL] | Tmax [2] [min] | half-life [2] [min] | AUC [2] [ng·h/mL] | k el [2] [s⁻¹] | Detection in plasma over the sampling time [2] | also measured
4 | Isoquercitrin | 4.5 ± 0.1 | 4.0 ± 0.2 | 4.7 ± 0.2 | 5.6 ± 0.1 | 50.7 ± 2.1 | 41.6 ± 0.5 | 49.0 ± 1.2 | 54.5 ± 0.8 | 1006.3 ± 30.5 | 1110.5 ± 21.8 | – | – | – | – | – | – | – | – | detected only at the first few blood sampling points | –
5 | COc1ccc(-c2cc(=O)c3c(O)cc(O)cc3o2)cc1 [Acacetin] | 4.5 ± 0.1 | 5.3 ± 0.1 | 4.6 ± 0.1 | 5.8 ± 0.1 | 50.5 ± 0.7 | 47.8 ± 0.7 | 50.3 ± 0.8 | 50.2 ± 5.7 | 977.4 ± 57.9 | 1032.7 ± 5.6 | 1030.3 ± 4.9 | 1126.2 ± 9.5 | – | – | – | – | – | – | detected only at the first few blood sampling points | –
6 | O=c1cc(-c2ccc(O)cc2)oc2cc(O[C@@H]3O[C@H](CO)[C@@H](O)[C@H](O)[C@H]3O)cc(O)c12 [Apigenin 7-glucoside] | 5.1 ± 0.2 | 4.3 ± 0.1 | 5.9 ± 0.1 | 5.6 ± 0.4 | 51.1 ± 0.4 | 44.5 ± 0.7 | 50.5 ± 1.0 | 53.7 ± 0.6 | 1108.3 ± 25.6 | 1112.8 ± 7.2 | 1077.6 ± 9.6 | 1086.7 ± 12.9 | 1470 ± 614 | 96.4 ± 24.8 | 41.4 ± 29.4 | 832 ± 609 | 1320 ± 489 | 6.94e-05 | – | –
7 | O=c1cc(-c2ccc(O)cc2)oc2cc(O)cc(O)c12 [Apigenin] | 5.2 ± 0.1 | 5.4 ± 0.2 | 4.9 ± 0.1 | 5.7 ± 0.1 | 49.3 ± 1.9 | 45.8 ± 1.3 | 49.3 ± 1.1 | 50.5 ± 0.4 | 1063.8 ± 62.8 | 1086.4 ± 17.6 | 987.0 ± 11.4 | 1112.4 ± 11.7 | 3090 ± 447 | 302 ± 87.1 | 30 | 667 ± 426 | 2900 ± 251 | 2.5e-05 | – | –
8 | COc1ccc([C@@H]2CC(=O)c3c(O)cc(O[C@@H]4O[C@H](CO[C@@H]5O[C@@H](C)[C@H](O)[C@@H](O)[C@H]5O)[C@@H](O)[C@H](O)[C@H]4O)cc3O2)cc1O [Hesperidin] | – | – | – | – | – | – | – | – | – | – | – | – | – | – | – | – | – | – | detected only at the first few blood sampling points | Measured concentration, -80°C for 14 days ([1]; spiked concentration 1 ng/mL): 1.1 ± 0.1 ng/mL; Measured concentration, Autosampler for 12 h ([1]; spiked concentration 1 ng/mL): 1.0 ± 0.1 ng/mL; Measured concentration, Room temperature for 6 h ([1]; spiked concentration 1 ng/mL): 1.1 ± 0.1 ng/mL; Measured concentration, Three freeze-thaw cycles ([1]; spiked concentration 1 ng/mL): 1.1 ± 0.1 ng/mL; Measured concentration, -80°C for 14 days ([1]; spiked concentration 10 ng/mL): 9.5 ± 0.2 ng/mL; Measured concentration, Autosampler for 12 h ([1]; spiked concentration 10 ng/mL): 8.8 ± 0.1 ng/mL; Measured concentration, Room temperature for 6 h ([1]; spiked concentration 10 ng/mL): 10.2 ± 0.4 ng/mL; Measured concentration, Three freeze-thaw cycles ([1]; spiked concentration 10 ng/mL): 10.0 ± 0.1 ng/mL; Measured concentration, -80°C for 14 days ([1]; spiked concentration 200 ng/mL): 209.5 ± 2.3 ng/mL; Measured concentration, Autosampler for 12 h ([1]; spiked concentration 200 ng/mL): 222.7 ± 2.0 ng/mL; Measured concentration, Room temperature for 6 h ([1]; spiked concentration 200 ng/mL): 213.7 ± 2.1 ng/mL; Measured concentration, Three freeze-thaw cycles ([1]; spiked concentration 200 ng/mL): 218.3 ± 0.7 ng/mL
9 | O=C(/C=C/c1ccc(O)c(O)c1)O[C@@H]1[C@H](O)C[C@@](O)(C(=O)O)C[C@H]1OC(=O)/C=C/c1ccc(O)c(O)c1 [Isochlorogenic acid C] | 5.6 ± 0.1 | 4.6 ± 0.4 | 5.2 ± 0.2 | 5.9 ± 0.1 | 43.3 ± 0.3 | 45.1 ± 0.6 | 48.1 ± 0.8 | 55.3 ± 0.4 | 1080.3 ± 37.8 | 1052.4 ± 38.4 | 1047.3 ± 12.4 | 1049.2 ± 32.0 | 405 ± 228 | 101 ± 73.3 | 24 ± 18.6 | 14.4 ± 13.2 | 309 ± 149 | 0.0013 | – | –
